# From patent US20230406803A1, “TROPOLONE DERIVATIVES AND TAUTOMERS THEREOF FOR IRON REGULATION IN ANIMALS” (Kinesid Therapeutics, Inc, priority 2020, published 2023)
# Assays:
# [1] = Mouse liver microsomal stability assay; format: in vitro ADME; conditions: mouse liver microsomes
# Source text: Further examples of useful assays include metabolic stability assays, such as but not limited to e.g., liver microsomal clearance assays which provide measurement such as, but not limited to e.g., liver microsomal clearance half-life (t1/2), liver microsomal intrinsic clearance (CLint), and the like. Such measurements are useful in assessing various characteristics of a subject compound, such as e.g., the availability of an intact compound to provide a pharmacological effect. A compound having a longer microsomal clearance half-life (t1/2), e.g., than a reference compound, will provide better exposure of the intact compound and greater availability to produce the relevant pharmacological effect. A compound having a less microsomal clearance, e.g., as measured by liver microsomal intrinsic clearance (CLint), will similarly result in greater exposure of the intact compound available for an increase in the relevant pharmacological effect, e.g., as compared to that of a reference compound with a higher liver microsomal intrinsic clearance (CLint). Other useful assays include in vitro hepatocyte metabolic stability assays.
# Such assessments included human and mouse liver microsomal stability assays as well as 6-hour mouse PK studies.
# [2] = Ligand facilitated Fe(III) efflux from liposomes; format: biochemical; parameters: unit not given here; conditions: efflux rate k at 10 μM ligand concentration; ferrozine absorbance 562 nm, 120 min kinetic read
# How it was run: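 POPC/cholesterol liposomes loaded with Fe(III) citrate in MES/Tris pH 7.0, diluted to 1 mM phosphorus in ascorbate buffer with 1 mM ferrozine outside. Ligand at 1.25–40 µM; absorbance at 562 nm read every 60 s for 120 min. Efflux rate k fitted by single-phase association, averaged over triplicates, compared at 10 µM.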
compound,measurement,setting,value
"CC(C)c1cccc(=O)c(O)c1 [hinokitiol, reference compound]",microsomal CLint,[1]; read-out: Mouse CLint,46.7 µL/min/mg
same,half-life,[1]; read-out: Mouse t1/2,29.7 min
same,Liposome Fe transport kefflux at 10 μM,[2],7.77
